Laboratory results reported in US9868692B2, “Compounds and compositions for intracellular delivery of therapeutic agents” (MODERNATX, Inc., priority 2015, dated 2018).

Test system: not listed separately
Assay: Particle size, polydispersity index (and zeta potential) of nanoparticle compositions, Zetasizer Nano ZS
Type: physicochemical
Settings: Table 1A; lipid:DSPC:cholesterol:PEG-DMG 50:10:38.5:1.5 mol %, mRNA
Description: Nanoparticle compositions may be characterized by a variety of methods. For example, microscopy (e.g., transmission electron microscopy or scanning electron microscopy) may be used to examine the morphology and size distribution of a nanoparticle composition. Dynamic light scattering or potentiometry (e.g., potentiometric titrations) may be used to measure zeta potentials. Dynamic light scattering may also be utilized to determine particle sizes. Instruments such as the Zetasizer Nano ZS (Malvern Instruments Ltd, Malvern, Worcestershire, UK) may also be used to measure multiple characteristics of a nanoparticle composition, such as particle size, polydispersity index, and zeta potential.
A Zetasizer Nano ZS (Malvern Instruments Ltd, Malvern, Worcestershire, UK) can be used to determine the particle size, the polydispersity index (PDI) and the zeta potential of the nanoparticle compositions in 1×PBS in determining particle size and 15 mM PBS in determining zeta potential.

SMILES | Size (nm)
CCCCCCCCCCCCN(CCO)CCCCCCCCCCCC(=O)OC [Compound 137, Methyl 12-(dodecyl(2-hydroxyethyl)amino)dodecanoate] | 184.4 nm

Test system: not listed separately
Assay: Encapsulation efficiency of RNA, QUANT-IT RIBOGREEN RNA assay
Type: physicochemical
Settings: Table 1A formulations
Description: The efficiency of encapsulation of a therapeutic and/or prophylactic describes the amount of therapeutic and/or prophylactic that is encapsulated or otherwise associated with a nanoparticle composition after preparation, relative to the initial amount provided. The encapsulation efficiency is desirably high (e.g., close to 100%). The encapsulation efficiency may be measured, for example, by comparing the amount of therapeutic and/or prophylactic in a solution containing the nanoparticle composition before and after breaking up the nanoparticle composition with one or more organic solvents or detergents. Fluorescence may be used to measure the amount of free therapeutic and/or prophylactic (e.g., RNA) in a solution. For the nanoparticle compositions described herein, the encapsulation efficiency of a therapeutic and/or prophylactic may be at least 50%, for example 50%, 55%, 60%, 65%, 70%, 75%, 80%, 85%, 90%, 91%, 92%, 93%, 94%, 95%, 96%, 97%, 98%, 99%, or 100%. In some embodiments, the encapsulation efficiency may be at least 80%. In certain embodiments, the encapsulation efficiency may be at least 90%.
For nanoparticle compositions including an RNA, a QUANT-IT™ RIBOGREEN® RNA assay (Invitrogen Corporation Carlsbad, Calif.) can be used to evaluate the encapsulation of an RNA by the nanoparticle composition. The samples are diluted to a concentration of approximately 5 μg/mL in a TE buffer solution (10 mM Tris-HCl, 1 mM EDTA, pH 7.5). 50 μL of the diluted samples are transferred to a polystyrene 96 well plate and either 50 μL of TE buffer or 50 μL of a 2% Triton X-100 solution is added to the wells. The plate is incubated at a temperature of 37° C. for 15 minutes. The RIBOGREEN® reagent is diluted 1:100 in TE buffer, and 100 μL of this solution is added to each well. The fluorescence intensity can be measured using a fluorescence plate reader (Wallac Victor 1420 Multilablel Counter; Perkin Elmer, Waltham, Mass.) at an excitation wavelength of, for example, about 480 nm and an emission wavelength of, for example, about 520 nm. The fluorescence values of the reagent blank are subtracted from that of each of the samples and the percentage of free RNA is determined by dividing the fluorescence intensity of the intact sample (without addition of Triton X-100) by the fluorescence value of the disrupted sample (caused by the addition of Triton X-100).

SMILES | EE (%)
CCCCCCCCCCCCN(CCO)CCCCCCCCCCCC(=O)OC [Compound 137, Methyl 12-(dodecyl(2-hydroxyethyl)amino)dodecanoate] | 85.7%

Test system: luciferase (Luc) mRNA expression
Assay: Luc expression (total flux, bioluminescence) after intravenous administration to mice
Type: in vivo
Settings: i.v., 0.5 mg/kg, 3, 6 and 24 hours, versus other compositions
Protocol: In order to monitor how effectively various nanoparticle compositions deliver therapeutic and/or prophylactics to targeted cells, different nanoparticle compositions including a particular therapeutic and/or prophylactic (for example, a modified or naturally occurring RNA such as an mRNA) are prepared and administered to rodent populations. Mice are intravenously, intramuscularly, intraarterially, or intratumorally administered a single dose including a nanoparticle composition with a formulation such as those provided in Example 3. In some instances, mice may be made to inhale doses. Dose sizes may range from 0.001 mg/kg to 10 mg/kg, where 10 mg/kg describes a dose including 10 mg of a therapeutic and/or prophylactic in a nanoparticle composition for each 1 kg of body mass of the mouse. A control composition including PBS may also be employed.
Upon administration of nanoparticle compositions to mice, dose delivery profiles, dose responses, and toxicity of particular formulations and doses thereof can be measured by enzyme-linked immunosorbent assays (ELISA), bioluminescent imaging, or other methods. For nanoparticle compositions including mRNA, time courses of protein expression can also be evaluated. Samples collected from the rodents for evaluation may include blood, sera, and tissue (for example, muscle tissue from the site of an intramuscular injection and internal tissue); sample collection may involve sacrifice of the animals.
The efficacy of the nanoparticle compositions presented in Table 1A was evaluated with a bioluminescence study. Formulations were administered intravenously to mice (n=6) at a dosage of 0.5 mg/kg (mpk) and bioluminescence measured at 3, 6, and 24 hour time points. The standard MC3 formulation and, in some instances, a control (e.g., a PBS control) were evaluated for comparison. […] In general, flux decreased as time progressed to less than 10% of the initial flux.
The total flux (measured by area under the curve, AUC) induced by administration of a formulation including a given lipid relative to that induced by administration of a formulation including MC3 was also measured for several lipids.

SMILES | flux at all time points measured
CCCCCCCCCCCOC(=O)CCCCCN(CCO)CCCCCC(=O)OCCCCCCCCCCC [Compound 141, Diundecyl 6,6′-((2-hydroxyethyl)azanediyl)dihexanoate] | significantly lower flux
CCCCCCCCCOC(=O)CCCCCCCN(CCO)CCCCCCCC(=O)OC(CC)CC [Compound 59, nonyl 8-((2-hydroxyethyl)(8-oxo-8-(pentan-3-yloxy)octyl)amino) octanoate] | significantly lower flux
CCCCCCCC/C=C\COC(=O)CCCCCN(CCO)CCCCCC(=O)OC/C=C\CCCCCCCC [Compound 140, Di((Z)-undec-2-en-1-yl) 6,6′-((2-hydroxyethyl)azanediyl)dihexanoate] | significantly lower flux
CCCCCCCCCOC(=O)CCCCCCCN(CCCCCCCC(=O)OC(CCCCCCCC)CCCCCCCC)CCOC(C)=O [Compound 9, Heptadecan-9-yl 8-((2-acetoxyethyl)(8-(nonyloxy)-8-oxooctyl)amino) octanoate] | significantly lower flux
CCCCCCCCCCCCN(CCO)CCCCCCCCCCCC(=O)OC [Compound 137, Methyl 12-(dodecyl(2-hydroxyethyl)amino)dodecanoate] | significantly lower flux
CCCCCCCCCOC(=O)CCCCCCCN(CCCCCCCC(=O)OC(CCCCCCCC)CCCCCCCC)CCC(=O)O [Compound 125, 3-((8-(Heptadecan-9-yloxy)-8-oxooctyl)(8-(nonyloxy)-8-oxooctyl)amino)propanoic acid] | significantly lower flux
CCCCCCCCCOC(=O)CCCCCCCN(CCO)CCCCCCCC(=O)OC(C)(C)C [Compound 158, tert-Butyl 8-((2-hydroxyethyl)(8-(nonyloxy)-8-oxooctyl)amino)octanoate] | significantly lower flux
CCCCCCCCCOC(=O)CCCCCCCN(CCCCCCCC(=O)OC(CCCCCCCC)CCCCCCCC)CCOCCN(C)C [Compound 17, Heptadecan-9-yl 8-((2-(2-(dimethylamino)ethoxy)ethyl)(8-(nonyloxy)-8-oxooctyl)amino)octanoate] | significantly lower flux
CCCCCCCCCOC(=O)CCCCCCCN(CCO)CCCCCCCC(=O)OC(CCC)CCC [Compound 58, heptan-4-yl 8-((2-hydroxyethyl)(8-(nonyloxy)-8-oxooctyl)amino) octanoate] | significantly lower flux
CCCCCCCCCOC(=O)CCCCCCCN(CCO)CCCCCCCC(=O)OC(CCCC)CCCC [Compound 57, nonan-5-yl 8-((2-hydroxyethyl)(8-(nonyloxy)-8-oxooctyl)amino) octanoate] | significantly lower flux
